Laboratory results published in the NIST ThermoML archive (doi:10.1021/je400539h).
Several values for one entry are separate records, joined by “and”; a condition that tells them apart may be missing. Equal values may be shown once.

Key:
[1] = 101 kPa, Liquid
[2] = xn = mol fraction of the nth substance listed; conditions: 101 kPa, Liquid

C1COCCO1 [1,4-dioxane]
[1]
Conditions	mass density [kg/m3]	speed of sound [m/s]	viscosity [mPa·s]
298.15 K	1028.2	1328	1.159
303.15 K	1022.7	1320	1.087
308.15 K	1017.4	1312	1.013
313.15 K	1011.1	1304	0.934

C=COCCCC [1-(ethenyloxy)butane]
[1]
Conditions	mass density [kg/m3]	speed of sound [m/s]	viscosity [mPa·s]
298.15 K	780.2	1096	0.4
303.15 K	774.1	1084	0.387
308.15 K	768.2	1072	0.365
313.15 K	763.3	1060	0.354

COc1ccccc1 [anisole]
[1]
Conditions	mass density [kg/m3]	speed of sound [m/s]	viscosity [mPa·s]
298.15 K	993.6	1396	0.97
303.15 K	989.4	1380	0.917
308.15 K	984.6	1364	0.863
313.15 K	980	1348	0.803

CCCCCCOC(C)=O [hexyl ethanoate]
[1]
Conditions	mass density [kg/m3]	speed of sound [m/s]	viscosity
298.15 K	868.3	1236	1.071 mPa·s
303.15 K	863.9	1216	0.982 mPa·s
308.15 K	859.8	1196	0.898 mPa·s and 0.899 mPa·s
313.15 K	855	1176	0.836 mPa·s

CCCCCCOC(C)=O [hexyl ethanoate] + COc1ccccc1
[2]
Conditions	mass density [kg/m3]	speed of sound [m/s]	viscosity [mPa·s]
298.15 K, x1 = 0.0698	979.8	1376	1.022
298.15 K, x1 = 0.1417	969.7	1360	1.031
298.15 K, x1 = 0.221	959	1344	1.038
298.15 K, x1 = 0.3061	947.7	1328	1.047
298.15 K, x1 = 0.398	935.8	1312	1.054
298.15 K, x1 = 0.4979	923.4	1300	1.058
298.15 K, x1 = 0.606	910.5	1284	1.061
298.15 K, x1 = 0.7254	896.9	1268	1.065
298.15 K, x1 = 0.8556	882.9	1252	1.07
298.15 K, x1 = 1	868.3	1236	1.071
303.15 K, x1 = 0.0698	975	1360	0.932
303.15 K, x1 = 0.1417	964.7	1340	0.94
303.15 K, x1 = 0.221	953.8	1324	0.95
303.15 K, x1 = 0.3061	942.6	1304	0.959
303.15 K, x1 = 0.398	930.8	1288	0.967
303.15 K, x1 = 0.4979	918.4	1272	0.972
303.15 K, x1 = 0.606	905.5	1260	0.975
303.15 K, x1 = 0.7254	891.9	1244	0.98
303.15 K, x1 = 0.8556	878	1232	0.983
303.15 K, x1 = 1	863.9	1216	0.982
308.15 K, x1 = 0.0698	968.1	1340	0.86
308.15 K, x1 = 0.1417	957.8	1320	0.872
308.15 K, x1 = 0.221	947.1	1296	0.878
308.15 K, x1 = 0.3061	936.2	1280	0.886
308.15 K, x1 = 0.398	925	1264	0.894
308.15 K, x1 = 0.4979	913	1248	0.898
308.15 K, x1 = 0.606	900.3	1236	0.901
308.15 K, x1 = 0.7254	886.8	1224	0.903
308.15 K, x1 = 0.8556	873.1	1208	0.902
308.15 K, x1 = 1	859.8	1196	0.898
313.15 K, x1 = 0.0698	961.6	1320	0.779
313.15 K, x1 = 0.1417	951.2	1296	0.791
313.15 K, x1 = 0.221	940.5	1272	0.802
313.15 K, x1 = 0.3061	929.8	1252	0.811
313.15 K, x1 = 0.398	918.6	1236	0.823
313.15 K, x1 = 0.4979	906.8	1220	0.828
313.15 K, x1 = 0.606	894.4	1204	0.833
313.15 K, x1 = 0.7254	881.2	1192	0.838
313.15 K, x1 = 0.8556	867.8	1184	0.84
313.15 K, x1 = 1	855	1176	0.836

C1CCOC1 [tetrahydrofuran]
[1]
Conditions	mass density [kg/m3]	speed of sound [m/s]	viscosity [mPa·s]
298.15 K	881.5	1268	0.45
303.15 K	878.7	1248	0.439
308.15 K	873	1228	0.429
313.15 K	866.9	1212	0.404

C1CCOC1 [tetrahydrofuran] + CCCCCCOC(C)=O
[2], x2 = 0
Conditions	mass density [kg/m3]	speed of sound [m/s]	viscosity [mPa·s]
298.15 K	881.5	1268	0.45
303.15 K	878.7	1248	0.439
308.15 K	873	1228	0.429
313.15 K	866.9	1212	0.404
